Test results published in ChEMBL document CHEMBL1201862, “PubChem BioAssay data set” (2004).
The source made the active and inactive calls.

Experiments:
[1] = target: T1, Heat shock factor protein 1 (Mus musculus, UniProt P38532); test: HSF1 potentiators in luciferase reporter cells, confirmation, cell-based, NIH3T3, luminescence, dose retest (AID 435004); format: functional;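 note: stress induced by proteasome inhibitor MG132 added 30 min after compound; luciferase reporter driven by HSF1 response element in NIH3T3 cells; actives raise luminescence as potentiators of the MG132 stress response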
T1 sequence (P38532 whole entry): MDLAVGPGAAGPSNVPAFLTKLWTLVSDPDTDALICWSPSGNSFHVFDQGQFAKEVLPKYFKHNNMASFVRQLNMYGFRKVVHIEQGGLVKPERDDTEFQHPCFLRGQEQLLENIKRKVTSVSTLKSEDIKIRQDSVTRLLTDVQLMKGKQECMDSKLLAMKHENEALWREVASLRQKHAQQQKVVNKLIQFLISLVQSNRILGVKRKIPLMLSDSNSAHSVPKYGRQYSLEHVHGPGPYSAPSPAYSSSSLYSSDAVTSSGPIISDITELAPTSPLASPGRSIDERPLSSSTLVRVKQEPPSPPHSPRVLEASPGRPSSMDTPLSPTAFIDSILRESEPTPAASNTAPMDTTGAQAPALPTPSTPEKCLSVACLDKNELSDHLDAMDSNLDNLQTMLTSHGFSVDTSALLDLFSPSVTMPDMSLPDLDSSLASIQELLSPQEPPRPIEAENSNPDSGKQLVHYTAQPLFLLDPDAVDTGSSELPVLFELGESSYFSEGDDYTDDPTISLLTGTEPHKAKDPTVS

Protein RecA = target: T2, Protein RecA (Mycobacterium tuberculosis, UniProt P9WHJ3); test: Fluorescence Cell-Free Homogeneous Dose Retest to Identify Inhibitors of RecA-Intein Splicing Activity. [Related pubchem assays (depositor defined):AID2097, AID2223, AID489010, AID492950]; format: functional
T2 sequence (P9WHJ3 whole entry): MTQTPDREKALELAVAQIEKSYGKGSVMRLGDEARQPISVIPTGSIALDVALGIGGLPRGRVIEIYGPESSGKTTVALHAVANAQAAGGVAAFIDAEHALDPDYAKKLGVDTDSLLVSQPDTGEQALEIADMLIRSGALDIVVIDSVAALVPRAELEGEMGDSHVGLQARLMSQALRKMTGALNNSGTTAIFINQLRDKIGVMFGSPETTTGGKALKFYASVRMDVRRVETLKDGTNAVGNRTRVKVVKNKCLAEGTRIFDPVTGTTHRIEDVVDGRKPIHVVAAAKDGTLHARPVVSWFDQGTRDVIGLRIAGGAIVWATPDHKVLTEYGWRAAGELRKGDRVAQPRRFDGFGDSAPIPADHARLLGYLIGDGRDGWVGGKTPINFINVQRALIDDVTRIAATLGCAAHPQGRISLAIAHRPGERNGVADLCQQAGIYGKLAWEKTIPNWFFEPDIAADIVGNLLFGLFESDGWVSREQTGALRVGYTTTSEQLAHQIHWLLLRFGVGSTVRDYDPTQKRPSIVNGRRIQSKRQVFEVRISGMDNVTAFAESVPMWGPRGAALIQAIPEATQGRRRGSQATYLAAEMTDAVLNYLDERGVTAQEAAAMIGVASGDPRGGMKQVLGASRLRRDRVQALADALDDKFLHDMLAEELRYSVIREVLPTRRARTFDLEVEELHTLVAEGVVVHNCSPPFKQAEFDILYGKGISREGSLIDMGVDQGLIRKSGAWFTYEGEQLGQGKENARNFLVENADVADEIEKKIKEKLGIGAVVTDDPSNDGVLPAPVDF

[2] = target: T3, Replicative DNA helicase DnaB (Mycobacterium tuberculosis, UniProt P9WMR3); test: DnaB intein splicing inhibitors, dose response, biochemical, cell-free fluorescence (AID 449749); format: functional
T3 sequence (P9WMR3 whole entry): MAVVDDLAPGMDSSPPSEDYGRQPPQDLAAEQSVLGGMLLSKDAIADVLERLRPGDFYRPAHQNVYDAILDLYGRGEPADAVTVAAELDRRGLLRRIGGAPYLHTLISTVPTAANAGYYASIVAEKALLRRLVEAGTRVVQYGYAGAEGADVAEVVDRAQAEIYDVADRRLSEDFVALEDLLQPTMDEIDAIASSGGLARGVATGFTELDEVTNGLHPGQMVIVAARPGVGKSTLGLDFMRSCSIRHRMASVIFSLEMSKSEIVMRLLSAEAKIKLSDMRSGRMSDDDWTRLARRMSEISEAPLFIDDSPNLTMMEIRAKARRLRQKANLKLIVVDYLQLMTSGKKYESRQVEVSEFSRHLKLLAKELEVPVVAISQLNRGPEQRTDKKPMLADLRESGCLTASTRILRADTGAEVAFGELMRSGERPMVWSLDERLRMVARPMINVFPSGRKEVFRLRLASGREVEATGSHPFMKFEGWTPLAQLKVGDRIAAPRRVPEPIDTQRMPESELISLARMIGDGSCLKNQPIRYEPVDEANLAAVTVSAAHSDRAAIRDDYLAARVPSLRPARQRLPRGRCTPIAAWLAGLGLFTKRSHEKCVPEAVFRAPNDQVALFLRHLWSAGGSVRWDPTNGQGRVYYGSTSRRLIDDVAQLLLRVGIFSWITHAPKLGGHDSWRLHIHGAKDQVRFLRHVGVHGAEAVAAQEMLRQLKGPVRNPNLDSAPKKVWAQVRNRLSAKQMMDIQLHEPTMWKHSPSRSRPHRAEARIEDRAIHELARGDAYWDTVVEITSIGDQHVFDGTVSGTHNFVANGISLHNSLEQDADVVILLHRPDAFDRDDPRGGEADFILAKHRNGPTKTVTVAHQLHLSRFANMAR

[3] = target: Hepatocyte nuclear factor 4-alpha (Homo sapiens, UniProt P41235); format: functional, cell-based;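 note: biochemical luminescence-based dose-response counterscreen measuring inhibition of HNF4 dimerization, run alongside a screen for blockers of ABHD5–perilipin-5 interaction; split luciferase complementation of HNF4 fusion proteins in cell lysate measuring dimerization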
[4] = MDA-MB-231 cell growth inhibition, dose response, cytotoxicity control for RAD54 inhibitor project, CellTiter-Glo luminescence, cherry-pick (AID 651692); format: functional, cell-based
[5] = target: T4, DNA repair and recombination protein RAD54-like (Homo sapiens, UniProt Q92698); test: inhibitors of human RAD54 branch migration, confirmation, biochemical, fluorescence, cherry-picked samples, dose series (AID 651657); format: functional
T4 sequence (Q92698 whole entry): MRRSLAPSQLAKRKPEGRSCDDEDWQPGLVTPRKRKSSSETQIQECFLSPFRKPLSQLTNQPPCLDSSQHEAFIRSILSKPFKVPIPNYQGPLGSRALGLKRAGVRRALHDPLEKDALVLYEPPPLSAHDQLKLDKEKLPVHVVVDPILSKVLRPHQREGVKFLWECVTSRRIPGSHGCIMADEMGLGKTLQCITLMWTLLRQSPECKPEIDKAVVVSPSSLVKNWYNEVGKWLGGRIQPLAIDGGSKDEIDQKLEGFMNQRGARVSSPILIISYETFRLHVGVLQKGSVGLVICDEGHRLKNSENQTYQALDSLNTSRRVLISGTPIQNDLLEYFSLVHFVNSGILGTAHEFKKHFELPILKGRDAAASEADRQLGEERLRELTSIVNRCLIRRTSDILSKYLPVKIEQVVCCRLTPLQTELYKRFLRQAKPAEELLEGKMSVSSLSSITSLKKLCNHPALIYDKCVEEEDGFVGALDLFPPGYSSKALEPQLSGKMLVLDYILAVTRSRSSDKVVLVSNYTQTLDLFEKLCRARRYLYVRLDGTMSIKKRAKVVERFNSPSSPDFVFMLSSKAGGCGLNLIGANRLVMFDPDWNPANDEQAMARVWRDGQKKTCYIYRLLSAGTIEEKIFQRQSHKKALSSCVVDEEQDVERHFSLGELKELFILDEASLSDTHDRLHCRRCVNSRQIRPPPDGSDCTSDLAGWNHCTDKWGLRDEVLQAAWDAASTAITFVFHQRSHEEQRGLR

[6] = target: T5, Corticotropin-releasing factor receptor 2/Corticotropin-releasing factor-binding protein (Homo sapiens, UniProt P24387+Q13324); test: Dose Response confirmation of uHTS hits for small molecule antagonists of the CRF-binding protein and CRF-R2 receptor complex.; format: functional; conditions: read-out: IC50_Mean
T5 sequence (Q13324 whole entry): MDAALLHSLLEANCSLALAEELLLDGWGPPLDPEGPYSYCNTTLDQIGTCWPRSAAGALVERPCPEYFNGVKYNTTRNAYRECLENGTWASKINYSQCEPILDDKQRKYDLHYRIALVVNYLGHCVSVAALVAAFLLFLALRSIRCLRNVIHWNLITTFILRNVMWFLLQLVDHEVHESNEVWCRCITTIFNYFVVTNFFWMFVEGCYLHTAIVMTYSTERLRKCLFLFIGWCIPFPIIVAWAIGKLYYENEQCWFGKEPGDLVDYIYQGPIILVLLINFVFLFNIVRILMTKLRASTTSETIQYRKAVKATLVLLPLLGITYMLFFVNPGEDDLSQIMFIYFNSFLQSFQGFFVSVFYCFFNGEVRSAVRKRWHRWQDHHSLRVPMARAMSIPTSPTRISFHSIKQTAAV
T5 sequence (P24387 whole entry): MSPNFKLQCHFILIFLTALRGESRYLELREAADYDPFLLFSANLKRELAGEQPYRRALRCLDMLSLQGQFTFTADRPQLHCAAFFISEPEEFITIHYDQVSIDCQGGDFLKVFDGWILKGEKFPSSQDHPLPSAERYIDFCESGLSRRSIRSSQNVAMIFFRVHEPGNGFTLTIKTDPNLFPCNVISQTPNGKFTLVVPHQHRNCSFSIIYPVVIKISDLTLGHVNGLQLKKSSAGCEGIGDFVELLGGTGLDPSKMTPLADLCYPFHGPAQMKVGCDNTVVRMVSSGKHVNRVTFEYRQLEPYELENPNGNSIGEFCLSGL

[7] = target: T5, Corticotropin-releasing factor receptor 2/Corticotropin-releasing factor-binding protein; test: activators of CRF receptor 2 with binding protein – uHTS hits, confirmation (AID 602473); format: functional; conditions: read-out: EC50_Mean
[8] = CRF-BP/CRF-R2 complex antagonists, dose response, cell-based, uHTS hits, 384-well (AID 651639); format: functional, Homo sapiens; conditions: read-out: IC50_Mean
[9] = target: Photoreceptor-specific nuclear receptor (Homo sapiens, UniProt Q9Y5X4); format: functional, cell-based;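 note: CHO-S cells with Gal4-NCOR and VP16-NR2E3 two-hybrid luciferase reporter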
[10] = target: T6, ATP-dependent translocase ABCB1 (Homo sapiens, UniProt P08183); test: ABCG2 efflux pump inhibitor potency, dose response, Ig-MXP3 cells, JC-1, flow cytometry, set 2 (AID 504566); format: functional; conditions: read-out: EC50_MICROM_;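 note: flow cytometry median green fluorescence of retained JC-1 dye; potency of efflux pump inhibition measured as rising substrate retention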
[11] = target: T6, ATP-dependent translocase ABCB1; test: ABCB1 efflux inhibitor potency, dose response, Jurkat-DNR cells, JC-1, flow cytometry, set 2 (AID 504569); format: functional; conditions: read-out: EC50_MICROM_;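 note: potency of pump inhibitors that raise cellular JC-1 green fluorescence up to the nicardipine level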
H9c2 = test: cells; format: functional, cell-based; conditions: Rattus norvegicus, H9c2, Myocardium
[12] = target: T7, Low molecular weight phosphotyrosine protein phosphatase (Homo sapiens, UniProt P24666); format: functional; conditions: read-out: IC50_Mean
T7 sequence (P24666 whole entry): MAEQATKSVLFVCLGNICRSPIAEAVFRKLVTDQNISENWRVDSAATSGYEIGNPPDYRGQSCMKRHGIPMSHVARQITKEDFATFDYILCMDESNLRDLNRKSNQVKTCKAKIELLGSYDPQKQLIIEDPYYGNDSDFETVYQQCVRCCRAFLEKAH

[13] = target: T8, Carboxy-terminal domain RNA polymerase II polypeptide A small phosphatase 1 (Homo sapiens, UniProt Q9GZU7); test: inhibitors of CTDSP1, concentration-response testing, biochemical assay, absorbance-based, actives from ultra-high-throughput screening (AID 540297); format: functional
T8 sequence (Q9GZU7 whole entry): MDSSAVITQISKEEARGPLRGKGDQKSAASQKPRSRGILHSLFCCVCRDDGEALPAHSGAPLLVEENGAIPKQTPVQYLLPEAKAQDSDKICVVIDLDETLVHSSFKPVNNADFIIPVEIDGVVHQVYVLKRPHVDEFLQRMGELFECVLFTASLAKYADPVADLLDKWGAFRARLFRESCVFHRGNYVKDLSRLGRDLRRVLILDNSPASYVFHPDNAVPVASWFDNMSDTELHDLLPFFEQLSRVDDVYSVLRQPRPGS

[14] = target: T7, Low molecular weight phosphotyrosine protein phosphatase; format: functional; conditions: read-out: IC50_Mean; remark: listed apart in the source
[15] = target: T9, Probable nicotinate-nucleotide adenylyltransferase (Staphylococcus aureus (strain N315), UniProt P65502); format: functional, Staphylococcus aureus subsp. aureus N315;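 for IC50 Mean: confirmatory dose-response retesting of NadD inhibitor hits first found in an ultra-high-throughput screen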
[16] = target: T9, Probable nicotinate-nucleotide adenylyltransferase; format: functional, Staphylococcus aureus subsp. aureus N315; conditions: read-out: IC50_Mean
[17] = inhibitors of intracellular T. cruzi replication, confirmation, NIH3T3 host cells, beta-gal luminescence (AID 2044); format: functional, cell-based;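 note: intracellular parasites grown in NIH/3T3 mouse fibroblasts as host cells; luminescent beta-galactosidase reporter signal from transgenic T. cruzi replicating inside host cells; inhibitors lower the luminescence signal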
Albumin = Albumin (Bos taurus, UniProt P02769); test: Counterscreen for inhibitors of T-cell receptor (TCR)-CD3 interaction: Fluorescence-based biochemical high throughput dose response assay to identify inhibitors of T-cell receptor (TCR)-CD3 interaction using a TAMRA-labeled BSA probe.; format: functional
[18] = HEp-2 cell cytotoxicity, dose response, cytotoxicity control for RSV inhibitor project, HTS (AID 2410); format: functional; conditions: human respiratory syncytial virus
[19] = cytotoxicity toward NIH3T3 fibroblasts, dose response, counter-screen, cell-based, ATP luminescence, mouse fibroblasts (AID 2010); format: functional;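 note: cells exposed to compound for about 90 hours before reading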

T6 sequence (P08183 whole entry): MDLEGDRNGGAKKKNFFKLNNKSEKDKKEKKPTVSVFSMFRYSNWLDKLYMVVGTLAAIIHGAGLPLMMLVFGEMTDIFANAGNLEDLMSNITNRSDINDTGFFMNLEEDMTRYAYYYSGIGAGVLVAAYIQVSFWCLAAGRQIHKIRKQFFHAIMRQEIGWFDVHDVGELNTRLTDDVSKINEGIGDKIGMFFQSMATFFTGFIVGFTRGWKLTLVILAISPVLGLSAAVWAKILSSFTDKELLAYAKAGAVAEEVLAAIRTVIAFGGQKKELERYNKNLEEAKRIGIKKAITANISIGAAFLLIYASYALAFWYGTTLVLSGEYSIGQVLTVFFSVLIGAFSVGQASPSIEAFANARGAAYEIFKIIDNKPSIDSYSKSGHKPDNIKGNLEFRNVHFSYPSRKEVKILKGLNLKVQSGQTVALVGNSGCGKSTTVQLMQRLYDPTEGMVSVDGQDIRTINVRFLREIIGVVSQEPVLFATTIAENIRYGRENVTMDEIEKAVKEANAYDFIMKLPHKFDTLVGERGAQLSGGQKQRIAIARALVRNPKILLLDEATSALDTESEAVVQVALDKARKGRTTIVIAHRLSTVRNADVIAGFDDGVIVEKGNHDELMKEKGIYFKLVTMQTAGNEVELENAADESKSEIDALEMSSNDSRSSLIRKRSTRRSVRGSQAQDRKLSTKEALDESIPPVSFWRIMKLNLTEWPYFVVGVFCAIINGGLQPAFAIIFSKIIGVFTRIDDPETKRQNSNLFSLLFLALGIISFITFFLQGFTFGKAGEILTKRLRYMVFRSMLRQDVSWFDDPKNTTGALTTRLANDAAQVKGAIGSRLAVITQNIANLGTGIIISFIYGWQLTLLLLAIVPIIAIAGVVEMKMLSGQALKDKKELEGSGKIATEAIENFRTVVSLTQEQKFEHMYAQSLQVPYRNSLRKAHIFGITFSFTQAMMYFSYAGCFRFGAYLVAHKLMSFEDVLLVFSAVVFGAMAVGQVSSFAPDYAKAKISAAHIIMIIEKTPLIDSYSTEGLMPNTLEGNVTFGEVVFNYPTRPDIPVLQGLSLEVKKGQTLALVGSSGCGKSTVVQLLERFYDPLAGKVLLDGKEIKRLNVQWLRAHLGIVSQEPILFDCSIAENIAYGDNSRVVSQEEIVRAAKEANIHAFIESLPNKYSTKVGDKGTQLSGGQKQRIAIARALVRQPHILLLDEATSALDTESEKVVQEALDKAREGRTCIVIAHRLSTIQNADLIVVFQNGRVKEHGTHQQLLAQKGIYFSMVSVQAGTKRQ
T9 sequence (P65502 whole entry): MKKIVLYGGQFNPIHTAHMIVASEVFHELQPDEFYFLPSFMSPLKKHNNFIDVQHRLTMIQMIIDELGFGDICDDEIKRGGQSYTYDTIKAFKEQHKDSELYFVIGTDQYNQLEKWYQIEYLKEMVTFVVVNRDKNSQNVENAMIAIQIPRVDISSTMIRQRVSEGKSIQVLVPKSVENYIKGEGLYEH
Photoreceptor-specific nuclear receptor, sequence (Q9Y5X4 whole entry, the tested form may be a part): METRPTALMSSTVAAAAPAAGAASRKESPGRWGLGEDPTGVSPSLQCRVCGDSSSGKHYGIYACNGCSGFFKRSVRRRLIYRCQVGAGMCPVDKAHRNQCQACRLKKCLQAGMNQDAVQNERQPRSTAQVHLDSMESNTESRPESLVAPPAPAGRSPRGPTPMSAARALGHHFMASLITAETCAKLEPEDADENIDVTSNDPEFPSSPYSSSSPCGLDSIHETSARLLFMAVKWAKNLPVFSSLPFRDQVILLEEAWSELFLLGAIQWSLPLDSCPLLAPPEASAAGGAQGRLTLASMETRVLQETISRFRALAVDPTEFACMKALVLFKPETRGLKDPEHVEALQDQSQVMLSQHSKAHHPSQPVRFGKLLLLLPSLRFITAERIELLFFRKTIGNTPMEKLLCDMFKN
Hepatocyte nuclear factor 4-alpha, sequence (P41235 whole entry, the tested form may be a part): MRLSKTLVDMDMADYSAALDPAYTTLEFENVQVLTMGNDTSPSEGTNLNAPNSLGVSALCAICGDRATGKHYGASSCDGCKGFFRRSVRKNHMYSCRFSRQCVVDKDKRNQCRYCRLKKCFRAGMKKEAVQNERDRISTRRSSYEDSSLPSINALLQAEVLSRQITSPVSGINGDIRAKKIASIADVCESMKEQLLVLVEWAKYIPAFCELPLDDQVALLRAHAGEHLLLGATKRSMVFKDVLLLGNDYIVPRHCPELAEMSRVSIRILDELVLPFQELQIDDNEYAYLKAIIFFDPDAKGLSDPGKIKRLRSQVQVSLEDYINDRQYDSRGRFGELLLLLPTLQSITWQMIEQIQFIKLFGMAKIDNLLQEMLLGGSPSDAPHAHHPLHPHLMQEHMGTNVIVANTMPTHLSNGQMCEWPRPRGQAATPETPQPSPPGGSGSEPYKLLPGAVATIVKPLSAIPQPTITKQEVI
Albumin, sequence (P02769 whole entry): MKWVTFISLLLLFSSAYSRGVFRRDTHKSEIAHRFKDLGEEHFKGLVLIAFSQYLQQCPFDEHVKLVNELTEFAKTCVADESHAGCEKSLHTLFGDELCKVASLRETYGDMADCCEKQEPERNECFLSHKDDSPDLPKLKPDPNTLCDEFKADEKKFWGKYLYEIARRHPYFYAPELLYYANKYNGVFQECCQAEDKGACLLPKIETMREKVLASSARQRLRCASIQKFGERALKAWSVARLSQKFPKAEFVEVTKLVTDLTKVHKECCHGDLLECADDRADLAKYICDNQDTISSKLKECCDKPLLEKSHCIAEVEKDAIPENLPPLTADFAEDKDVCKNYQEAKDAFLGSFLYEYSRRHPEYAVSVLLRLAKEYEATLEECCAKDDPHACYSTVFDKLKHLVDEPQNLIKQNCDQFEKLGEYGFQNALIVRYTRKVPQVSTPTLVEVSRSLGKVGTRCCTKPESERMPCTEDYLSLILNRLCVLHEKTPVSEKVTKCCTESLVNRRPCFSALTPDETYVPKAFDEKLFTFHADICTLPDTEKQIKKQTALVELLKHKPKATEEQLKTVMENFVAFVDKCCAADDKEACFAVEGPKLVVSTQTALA

## N#Cc1ncc(Cc2ccccc2)nc1C#N
[1]
  EC50: 18.1 µM (active)
Protein RecA
  EC50: 1.71 µM (active)
[2]
  AC50: 2.42 µM (active)
[3]
  IC50: 18.1 µM (inactive)

## CCCCN(CC)CCNC(=O)c1cc2c(O)nc3ccc(C)cc3c2s1
[4]
  AC50: 23.1 µM (active)
[5]
  AC50: 100 µM (inactive)

## CN(CCOc1ccc(Cl)cc1)C(=O)C1CCN(C(=O)c2ccc(Cl)cc2)CC1
[6]
  IC50: < 0.368 µM (active)
[7]
  EC50: > 53 µM (inactive)
[8]
  IC50: > 20 µM (inactive)

## O=C(O)CC1(CC(=O)Nc2cc(C(F)(F)F)cc(C(F)(F)F)c2)CCCCC1
[9]
  IC50: 2.23 µM (active)

## COc1ccc(-c2cc3nc(-c4ccccc4)cc(N4CCN(C(C)=O)CC4)n3n2)cc1
[10]
  EC50: 1.47 µM (active)
[11]
  EC50: 1.94 µM (active)
H9c2
  IC50: > 79 µM (inactive)

## O=C(NNC(=O)c1ccc2ccccc2c1)c1ccc(Cl)cc1
[12]
  IC50: 54.1 µM (inactive)
[13]
  IC50: > 80 µM (inactive)
[14]
  IC50: 20 µM (inactive)

## COCCn1/c(=N/C(=O)c2cc(-c3cccs3)nc3ccccc23)sc2cc(S(N)(=O)=O)ccc21
[15]
  IC50: 12.4 µM (active)
[16]
  IC50: 23.8 µM (active)
[17]
  EC50: 2.47 µM (active)
Albumin
  IC50: > 94.1 µM (inactive)
[18]
  CC50: > 50 µM (active)
[19]
  EC50: > 60 µM (not active)
